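Each compound was tested at five concentrations against cells in 96-well plates for 48 hours. GI50 is the concentration that inhibits growth by half. TGI: total growth inhibition.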
How the values were obtained:
Test in all cases: growth of human tumour cells (NCI), 48 h
SNB-19 CNS = system: SNB-19 CNS
CAKI-1 renal = system: CAKI-1 renal
SK-OV-3 ovarian = system: SK-OV-3 ovarian
MDA-MB-435 = system: MDA-MB-435
UO-31 renal = system: UO-31 renal
A549 NSCLC = system: A549 NSCLC
HOP-62 NSCLC = system: HOP-62 NSCLC
SF-295 CNS = system: SF-295 CNS
BT-549 breast = system: BT-549 breast
OVCAR-5 ovarian = system: OVCAR-5 ovarian
HCT-116 colon = system: HCT-116 colon
DU-145 prostate = system: DU-145 prostate
OVCAR-8 ovarian = system: OVCAR-8 ovarian
SR leukemia = system: SR leukemia
MALME-3M melanoma = system: MALME-3M melanoma
NCI-H23 lung = system: NCI-H23 lung
SF-268 CNS = system: SF-268 CNS
OVCAR-4 ovarian = system: OVCAR-4 ovarian
COLO 205 colon = system: COLO 205 colon
NCI-H460 lung = system: NCI-H460 lung
SK-MEL-28 melanoma = system: SK-MEL-28 melanoma
T-47D breast = system: T-47D breast
RPMI-8226 leukemia = system: RPMI-8226 leukemia
HL-60(TB) leukemia = system: HL-60(TB) leukemia
A498 renal = system: A498 renal
NCI-H226 lung = system: NCI-H226 lung
HCC-2998 colon = system: HCC-2998 colon
RXF 393 renal = system: RXF 393 renal
CCRF-CEM leukemia = system: CCRF-CEM leukemia
ACHN renal = system: ACHN renal
786-0 renal = system: 786-0 renal
HT29 colon = system: HT29 colon
MOLT-4 leukemia = system: MOLT-4 leukemia
UACC-257 melanoma = system: UACC-257 melanoma
SF-539 CNS = system: SF-539 CNS
NCI-H522 lung = system: NCI-H522 lung
HS 578T breast = system: HS 578T breast
KM12 colon = system: KM12 colon
TK-10 renal = system: TK-10 renal
PC-3 prostate = system: PC-3 prostate
K-562 leukemia = system: K-562 leukemia
SK-MEL-5 melanoma = system: SK-MEL-5 melanoma
MDA-MB-231 breast = system: MDA-MB-231 breast
UACC-62 melanoma = system: UACC-62 melanoma
NCI/ADR-RES ovarian = system: NCI/ADR-RES ovarian
IGROV1 ovarian = system: IGROV1 ovarian
SN12C renal = system: SN12C renal
SNB-75 CNS = system: SNB-75 CNS
HCT-15 colon = system: HCT-15 colon
SW-620 colon = system: SW-620 colon
MCF7 breast = system: MCF7 breast
M14 melanoma = system: M14 melanoma
OVCAR-3 ovarian = system: OVCAR-3 ovarian

With CCOC(=O)Nc1cc(-c2ccc(C)c(NS(C)(=O)=O)c2)nn2c(C)nnc12 the GI50 (SNB-19 CNS) was 799 nM, the TGI (SNB-19 CNS) was greater than 100000 nM and the GI50 (CAKI-1 renal) was 537 nM. It also gave a TGI (CAKI-1 renal) of 23600 nM, a GI50 (SK-OV-3 ovarian) of 1210 nM and a TGI (SK-OV-3 ovarian) of 5660 nM. The GI50 (MDA-MB-435) was 1330 nM, the TGI (MDA-MB-435) was 41700 nM and the GI50 (UO-31 renal) was 697 nM. The TGI (UO-31 renal) was greater than 100000 nM, the GI50 (A549 NSCLC) was 3070 nM and the TGI (A549 NSCLC) was greater than 100000 nM. The GI50 (HOP-62 NSCLC) was 1890 nM, the TGI (HOP-62 NSCLC) was 20500 nM and the GI50 (SF-295 CNS) was 1850 nM. It also gave a TGI (SF-295 CNS) of 56300 nM, a GI50 (BT-549 breast) of 5350 nM and a TGI (BT-549 breast) greater than 100000 nM. The GI50 (OVCAR-5 ovarian) was 2640 nM, the TGI (OVCAR-5 ovarian) was 31300 nM and the GI50 (HCT-116 colon) was 1900 nM. The TGI (HCT-116 colon) was 15300 nM, the GI50 (DU-145 prostate) was 5020 nM and the TGI (DU-145 prostate) was greater than 100000 nM. For the same compound, the GI50 (OVCAR-8 ovarian) was 2040 nM, the TGI (OVCAR-8 ovarian) was greater than 100000 nM and the GI50 (SR leukemia) was 643 nM. It also gave a TGI (SR leukemia) greater than 100000 nM, a GI50 (MALME-3M melanoma) of 1110 nM and a TGI (MALME-3M melanoma) of 41500 nM. For the same compound, the GI50 (NCI-H23 lung) was 1930 nM, the TGI (NCI-H23 lung) was 9160 nM and the GI50 (SF-268 CNS) was 4130 nM. For the same compound, the TGI (SF-268 CNS) was greater than 100000 nM, the GI50 (OVCAR-4 ovarian) was 735 nM and the TGI (OVCAR-4 ovarian) was 10900 nM. It also gave a GI50 (COLO 205 colon) of 452 nM, a TGI (COLO 205 colon) of 1550 nM and a GI50 (NCI-H460 lung) of 2040 nM. The TGI (NCI-H460 lung) was greater than 100000 nM, the GI50 (SK-MEL-28 melanoma) was 2690 nM and the TGI (SK-MEL-28 melanoma) was greater than 100000 nM. For the same compound, the GI50 (T-47D breast) was 1470 nM, the TGI (T-47D breast) was 17000 nM and the GI50 (RPMI-8226 leukemia) was 549 nM. It also gave a TGI (RPMI-8226 leukemia) of 4970 nM, a GI50 (HL-60(TB) leukemia) of 334 nM and a TGI (HL-60(TB) leukemia) of 2710 nM. The GI50 (A498 renal) was 1590 nM, the TGI (A498 renal) was 5880 nM and the GI50 (NCI-H226 lung) was 3930 nM. It also gave a TGI (NCI-H226 lung) of 24400 nM, a GI50 (HCC-2998 colon) of 1590 nM and a TGI (HCC-2998 colon) of 3370 nM. For the same compound, the GI50 (RXF 393 renal) was 2590 nM, the TGI (RXF 393 renal) was 12900 nM and the GI50 (CCRF-CEM leukemia) was 1010 nM. For the same compound, the TGI (CCRF-CEM leukemia) was 14900 nM, the GI50 (ACHN renal) was 2640 nM and the TGI (ACHN renal) was 60700 nM. It also gave a GI50 (786-0 renal) of 2640 nM, a TGI (786-0 renal) greater than 100000 nM and a GI50 (HT29 colon) of 809 nM. The TGI (HT29 colon) was 14100 nM, the GI50 (MOLT-4 leukemia) was 2450 nM and the TGI (MOLT-4 leukemia) was 9940 nM. The GI50 (UACC-257 melanoma) was 1110 nM, the TGI (UACC-257 melanoma) was greater than 100000 nM and the GI50 (SF-539 CNS) was 1860 nM. For the same compound, the TGI (SF-539 CNS) was greater than 100000 nM, the GI50 (NCI-H522 lung) was 381 nM and the TGI (NCI-H522 lung) was 3220 nM. It also gave a GI50 (HS 578T breast) of 563 nM, a TGI (HS 578T breast) of 6820 nM and a GI50 (KM12 colon) of 2020 nM. For the same compound, the TGI (KM12 colon) was 19700 nM, the GI50 (TK-10 renal) was 465 nM and the TGI (TK-10 renal) was 7360 nM. For the same compound, the GI50 (PC-3 prostate) was 1360 nM, the TGI (PC-3 prostate) was greater than 100000 nM and the GI50 (K-562 leukemia) was 1730 nM. The TGI (K-562 leukemia) was greater than 100000 nM, the GI50 (SK-MEL-5 melanoma) was 2680 nM and the TGI (SK-MEL-5 melanoma) was 10400 nM. The GI50 (MDA-MB-231 breast) was 807 nM, the TGI (MDA-MB-231 breast) was 20400 nM and the GI50 (UACC-62 melanoma) was 445 nM. The TGI (UACC-62 melanoma) was 18500 nM, the GI50 (NCI/ADR-RES ovarian) was 6260 nM and the TGI (NCI/ADR-RES ovarian) was greater than 100000 nM. The GI50 (IGROV1 ovarian) was 1570 nM, the TGI (IGROV1 ovarian) was 8170 nM and the GI50 (SN12C renal) was 2060 nM. For the same compound, the TGI (SN12C renal) was 58500 nM, the GI50 (SNB-75 CNS) was 477 nM and the TGI (SNB-75 CNS) was 9130 nM. The GI50 (HCT-15 colon) was 1260 nM, the TGI (HCT-15 colon) was 10300 nM and the GI50 (SW-620 colon) was 2420 nM. It also gave a TGI (SW-620 colon) of 30900 nM, a GI50 (MCF7 breast) of 395 nM and a TGI (MCF7 breast) greater than 100000 nM. The GI50 (M14 melanoma) was 2100 nM, the TGI (M14 melanoma) was greater than 100000 nM and the GI50 (OVCAR-3 ovarian) was 1360 nM. For the same compound, the TGI (OVCAR-3 ovarian) was 6560 nM.

Reference: PubChem BioAssay (NCI)
